Where two headings read alike, the source gives them in different places.
Key:
CYP2D6 [1] = biological target: T1, CYP2D6 (Homo sapiens, UniProt P10635)
Procedure: (§1) Each active ingredient was incubated at 0.1 μM at 37° C. […] The reaction is initiated by addition of NADPH 1 mM. The incubation is monitored in kinetic form. At the incubation timepoints of 7 min, 17 min, 30 min and then 60 min, an incubation aliquot (100 μL) is sampled and the enzymatic reaction is stopped by adding to that aliquot a to volume of solvent (100 μL of methanol) which is placed in ice for 10 minutes.
(§2) At each incubation timepoint, the active ingredient is quantified by high-performance liquid chromatography (HPLC) coupled with mass spectrometry (MS).

CYP2C9 = CYP2C9 (Homo sapiens, UniProt P11712)
Procedure: as §1, §2

CYP2C8 = biological target: T2, CYP2C8 (Homo sapiens, UniProt P10632)
T2 sequence (P10632 1-490): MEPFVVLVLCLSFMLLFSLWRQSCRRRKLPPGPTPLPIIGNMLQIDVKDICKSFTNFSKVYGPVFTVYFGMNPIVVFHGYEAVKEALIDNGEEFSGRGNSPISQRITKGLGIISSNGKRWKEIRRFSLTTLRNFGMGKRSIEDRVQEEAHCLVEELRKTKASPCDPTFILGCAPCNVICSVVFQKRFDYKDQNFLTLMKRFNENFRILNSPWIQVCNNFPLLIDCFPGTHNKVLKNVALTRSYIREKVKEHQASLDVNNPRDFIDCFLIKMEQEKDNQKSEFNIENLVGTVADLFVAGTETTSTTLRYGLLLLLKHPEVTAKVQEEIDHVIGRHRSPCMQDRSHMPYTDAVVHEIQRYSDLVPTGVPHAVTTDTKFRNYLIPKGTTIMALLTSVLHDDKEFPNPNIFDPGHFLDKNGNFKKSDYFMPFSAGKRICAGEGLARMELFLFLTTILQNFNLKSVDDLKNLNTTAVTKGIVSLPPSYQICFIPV
Procedure: as §1, §2

[2] = human
Procedure: as §1, §2

CYP1A2 = tested on: CYP1A2
Procedure: as §1, §2

CYP2B6 [3] = biological target: T3, CYP2B6 (Homo sapiens, UniProt P20813)
T3 sequence (P20813 1-491): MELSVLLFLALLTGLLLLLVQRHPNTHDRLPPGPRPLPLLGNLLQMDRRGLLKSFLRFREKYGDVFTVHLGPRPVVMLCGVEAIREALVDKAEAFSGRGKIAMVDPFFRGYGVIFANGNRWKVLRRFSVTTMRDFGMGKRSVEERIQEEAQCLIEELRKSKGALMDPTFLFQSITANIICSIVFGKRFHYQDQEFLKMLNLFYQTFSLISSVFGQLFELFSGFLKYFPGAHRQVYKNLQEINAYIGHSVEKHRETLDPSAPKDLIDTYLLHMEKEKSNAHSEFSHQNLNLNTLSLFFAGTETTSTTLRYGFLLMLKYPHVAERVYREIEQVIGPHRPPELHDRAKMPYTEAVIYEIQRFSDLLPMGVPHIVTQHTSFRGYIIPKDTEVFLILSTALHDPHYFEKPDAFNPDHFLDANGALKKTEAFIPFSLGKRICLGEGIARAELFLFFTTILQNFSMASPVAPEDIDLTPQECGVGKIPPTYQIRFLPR
Procedure: as §1, §2

CYP3A4 [4] = biological target: T4, CYP3A4 (Homo sapiens, UniProt P08684); conditions: bortezomib 2 μM; human liver microsomes; cited from earlier work
Target sequence in this assay (P08684 whole entry): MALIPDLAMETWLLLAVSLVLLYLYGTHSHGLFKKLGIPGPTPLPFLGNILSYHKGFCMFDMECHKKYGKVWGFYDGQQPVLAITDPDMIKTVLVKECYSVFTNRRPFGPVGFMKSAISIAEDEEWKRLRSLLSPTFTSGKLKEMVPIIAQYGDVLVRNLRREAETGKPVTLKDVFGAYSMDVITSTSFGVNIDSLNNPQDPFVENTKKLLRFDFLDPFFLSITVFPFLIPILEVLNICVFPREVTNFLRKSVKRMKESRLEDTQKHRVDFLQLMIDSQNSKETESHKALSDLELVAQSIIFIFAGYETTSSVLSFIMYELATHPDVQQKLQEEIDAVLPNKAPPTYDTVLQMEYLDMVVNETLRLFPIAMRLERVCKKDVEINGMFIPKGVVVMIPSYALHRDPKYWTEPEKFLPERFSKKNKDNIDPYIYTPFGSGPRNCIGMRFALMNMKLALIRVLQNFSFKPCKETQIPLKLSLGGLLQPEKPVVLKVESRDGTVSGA

CYP3A4 [5] = biological target: T4, CYP3A4; conditions: healthy volunteer; ritonavir 600 mg; loperamide 16 mg; cited from earlier work
Target sequence in this assay (P08684 whole entry): as above

CYP3A4 [6] = biological target: T4, CYP3A4; conditions: healthy volunteers; itraconazole 100 mg; loperamide 4 mg; cited from earlier work
Target sequence in this assay (P08684 whole entry): as above

CYP3A4 [7] = biological target: T4, CYP3A4; conditions: mirtazapine 2.5 to 1000 μM; human recombinant enzyme model; cited from earlier work
Target sequence in this assay (P08684 whole entry): as above

CYP2D6 [8] = biological target: T1, CYP2D6; conditions: mirtazapine 2.5 to 1000 μM; human recombinant enzyme model; cited from earlier work
CYP2B6 [9] = biological target: T3, CYP2B6; conditions: in a pool of human liver; cited from earlier work
CYP3A4 [10] = biological target: T4, CYP3A4
Procedure: as §1, §2
Target sequence in this assay (P08684 2-503): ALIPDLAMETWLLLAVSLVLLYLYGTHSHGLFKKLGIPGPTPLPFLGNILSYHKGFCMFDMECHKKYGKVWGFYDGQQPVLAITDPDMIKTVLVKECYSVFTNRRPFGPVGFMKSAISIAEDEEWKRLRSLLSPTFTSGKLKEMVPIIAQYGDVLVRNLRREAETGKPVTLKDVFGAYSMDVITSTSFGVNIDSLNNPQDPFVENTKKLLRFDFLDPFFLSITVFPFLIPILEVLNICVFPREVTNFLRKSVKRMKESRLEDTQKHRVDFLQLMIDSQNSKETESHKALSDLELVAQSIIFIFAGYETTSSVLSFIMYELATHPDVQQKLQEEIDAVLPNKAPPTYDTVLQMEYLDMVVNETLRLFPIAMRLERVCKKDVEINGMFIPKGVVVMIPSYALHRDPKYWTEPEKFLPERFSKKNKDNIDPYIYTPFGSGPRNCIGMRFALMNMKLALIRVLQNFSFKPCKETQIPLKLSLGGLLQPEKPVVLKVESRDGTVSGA

Sequence of CYP2C9 (P11712 whole entry): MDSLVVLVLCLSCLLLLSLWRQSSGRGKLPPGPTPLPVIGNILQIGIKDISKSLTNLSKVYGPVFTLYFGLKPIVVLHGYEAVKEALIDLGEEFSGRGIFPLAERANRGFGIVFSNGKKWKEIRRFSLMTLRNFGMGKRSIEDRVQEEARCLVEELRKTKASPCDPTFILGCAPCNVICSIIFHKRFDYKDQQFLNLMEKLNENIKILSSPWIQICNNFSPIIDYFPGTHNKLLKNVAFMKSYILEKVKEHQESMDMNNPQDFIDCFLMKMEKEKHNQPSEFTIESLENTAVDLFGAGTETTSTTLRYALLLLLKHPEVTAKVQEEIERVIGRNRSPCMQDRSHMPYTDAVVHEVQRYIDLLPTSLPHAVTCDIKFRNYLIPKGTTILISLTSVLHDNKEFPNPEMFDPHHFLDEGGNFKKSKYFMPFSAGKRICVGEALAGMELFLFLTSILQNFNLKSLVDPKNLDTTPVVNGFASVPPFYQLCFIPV
T1 sequence (P10635 whole entry): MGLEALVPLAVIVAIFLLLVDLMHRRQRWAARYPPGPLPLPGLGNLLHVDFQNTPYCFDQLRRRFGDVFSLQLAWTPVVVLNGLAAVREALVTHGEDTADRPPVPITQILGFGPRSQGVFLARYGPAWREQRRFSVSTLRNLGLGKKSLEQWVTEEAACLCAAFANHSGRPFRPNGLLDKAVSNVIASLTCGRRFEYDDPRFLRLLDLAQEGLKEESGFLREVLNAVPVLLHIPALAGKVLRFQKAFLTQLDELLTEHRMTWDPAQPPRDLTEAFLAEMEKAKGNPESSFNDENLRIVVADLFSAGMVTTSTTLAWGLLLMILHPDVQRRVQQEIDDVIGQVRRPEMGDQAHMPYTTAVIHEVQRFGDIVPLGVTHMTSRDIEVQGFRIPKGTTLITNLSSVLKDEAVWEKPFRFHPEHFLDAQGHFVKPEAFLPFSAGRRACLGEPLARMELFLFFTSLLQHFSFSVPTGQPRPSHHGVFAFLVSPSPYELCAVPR

Structure (SMILES)	inhibition of intrinsic clearance = % involvement of CYP2D6 in the oxidative metabolism (kit of isolated microsomes) (CYP2D6 [1])	inhibition of intrinsic clearance = % involvement of CYP2C9 in the oxidative metabolism (kit of isolated microsomes) (CYP2C9)	inhibition of intrinsic clearance = % involvement of CYP2C8 in the oxidative metabolism (kit of isolated microsomes) (CYP2C8)	intrinsic clearance in the presence of control microsomes [2]	inhibition of intrinsic clearance = % involvement of CYP1A2 in the oxidative metabolism (kit of isolated microsomes) (CYP1A2)	inhibition of intrinsic clearance = % involvement of CYP2B6 in the oxidative metabolism (kit of isolated microsomes) (CYP2B6 [3])	inhibition of metabolism by anti-CYP 3A4 monoclonal antibody = % involvement of CYP3A4, expected data (Uttamsingh et al.) (CYP3A4 [4])	increase in exposure, factor (CYP3A4 [5])	increase in exposure, factor (CYP3A4 [6])	% involvement of CYP3A4 in the metabolism, expected data (Störmer et al.) (CYP3A4 [7])	% involvement of CYP2D6 in the metabolism, expected data (Störmer et al.) (CYP2D6 [8])	% involvement of CYP2B6 in the metabolism, expected data (Obach et al.) (CYP2B6 [9])	inhibition of intrinsic clearance = % involvement of CYP3A4 in the oxidative metabolism (kit of isolated microsomes) (CYP3A4 [10])
CC(C)C[C@H](NC(=O)[C@H](Cc1ccccc1)NC(=O)c1cnccn1)B(O)O [bortezomib]	No significant inhibition	No significant inhibition	No significant inhibition	6.9-11 ml/min/g of proteins	No significant inhibition	No significant inhibition	79%	–	–	–	–	–	–
CN(C)C(=O)C(CCN1CCC(O)(c2ccc(Cl)cc2)CC1)(c1ccccc1)c1ccccc1 [loperamide]	–	–	–	–	–	–	–	2.65	3.8	–	–	–	–
CN1CCN2c3ncccc3Cc3ccccc3C2C1 (centres unmarked) [mirtazapine]	–	No significant inhibition	No significant inhibition	3.9-7.8 ml/min/g of proteins	–	No significant inhibition	–	–	–	23%	39%	–	–
CN[C@H]1CC[C@@H](c2ccc(Cl)c(Cl)c2)c2ccccc21 [sertraline]	–	No significant inhibition	No significant inhibition	52.5-70.5 ml/min/g of proteins	–	–	–	–	–	–	–	60%	No significant inhibition

From US20150247179A1 (Les Laboratoires Servier, priority 2013, published 2015)
